Results taken from patent US20230287415A1, “COMBINED THERAPY AGAINST CANCER” (FUNDACIÓ INSTITUT HOSPITAL DEL MAR D'INVESTIGACIONS …, priority 2020, published 2023).

Legend:
LCoR = assay: Doxorubicin treatment of breast cancer cells, LCoR mRNA by qRT-PCR; format: cell-based, human; settings: 360 nM during 48 hours, MDA-MB-231 cells
Description: Low dose treatment of breast cancer cells (360 nM during 48 hours) induced an increase of 2.3 fold change mRNA expression of LCoR in MDA-MB-231 cells.
Cell lines, culture conditions and treatments. All cell lines used in the study, including mammary epithelial cell lines (human HMLE), breast cancer cell lines (human MDA-MB-231 and mouse 4TO7; PyMT8119; AT3 cell lines) and other cell lines (HEK293T, H29 and HeLa), were cultured using the standard conditions according the American Type Culture Collection (ATCC) instructions. Doxorrubicin treatment was performed at 360 nM during 48 hours in MDA-MB-231 cells.
qRT-PCR analyses. Total mRNA was isolated using the RNAeasy isolation Kit (QIAGEN). mRNA reverse transcription was done using Applied Biosystems reactants and real-time quantitative PCR performed using the Power SYBR green PCR master mix (Applied Biosystems). All analyses were performed using an ABI 7900HT PCR machine. mRNA expression was normalized by the expression of GAPDH in each sample.

PyMT8119-OVA cells = assay: Cytotoxic T-cell lymphocyte (CTL) co-culture assay; format: cell-based, mouse; settings: OT-I CD8+ T-cells co-cultured with LCoR-OE tumor cells, in combination with anti-PD-L1
Excerpt: These paradoxical effects of LCoR, increased immunogenicity vs. increased PD-L1, poses LCoR expressing cells as largely responsive cells to anti-PD-L1 immune-checkpoint blockade therapy.
The transgenic OT-I mouse model strain with specific TCR for the OVA-derived peptide SIINFEKL MHC-I presented, were used to isolate splenocytes and CD8+T-cells that specifically recognize the SIINFEKL peptide (OVA 257-264). 9-week OT-I mice were sacrificed to obtain the spleen. Using mechanical dissociation of the spleen over a sterile 40 μm mesh screen. Total splenocytes were plated in six well plates and non-attached T cells were separated from adherent dendritic cells (DC) after 24 hours. CD8+T-cells were isolated by FACS.
Cytotoxic T-cell lymphocyte (CTL) co-culture assays. CD8+ T-cells were isolated from the spleen of OT-I mice and activated in culture with OVA peptide during 48 hours. Activated CD8+ T-cells were cocultured in 24-well plates with PyMT8119-OVA cells in different ratios of effector T-cells:tumor cells (E:T). After 5 days of coculture, T-cells and debris were removed, washed with media and stained with Sulforhodamine B (SRB) for measuring cytotoxicity (Vichai and Kirtikara 2006). […]

Compound | increase of mRNA expression of LCoR (LCoR) | sensitivity to immune detection and killing (PyMT8119-OVA cells)
COc1cccc2c1C(=O)c1c(O)c3c(c(O)c1C2=O)C[C@@](O)(C(=O)CO)C[C@@H]3O[C@H]1C[C@H](N)[C@H](O)[C@H](C)O1 [Doxorubicin] | 2.3 fold change | 
Atezolizumab |  | enhanced sensitivity to immune detection and killing
